The source made the active and inactive calls. No cut-off for these calls is given here.
What was measured:
[1] = system: HCC1806; experiment: Inhibition of RSK in human HCC1806 cells assessed as reduction in YB-1 phosphorylation at Ser102 residue at 5 uM incubated for 12 hrs by western blot analysis; type: cell-based
[2] = system: HCC1806; experiment: Anti-tumor activity against human HCC1806 cells assessed as inhibition of cell proliferation; type: functional, cell-based

## Cc1cc(C)cc(-c2ccncc2-c2ccc(O)c(O)c2)c1
[1]
  inhibition: Active

## Clc1ccc(-c2ccncc2-c2ccc(OCc3ccccc3)c(NCc3ccccc3)c2)cc1
[1]
  inhibition: Active

## CN1CCN(c2ccc(-c3ccncc3-c3cc(F)c(O)c(F)c3)cc2)CC1
[1]
  inhibition: Active
[2]
  Activity: Active

## O=Cc1ccc(-c2ccncc2-c2ccc(OCc3ccccc3)c(OCc3ccccc3)c2)cc1
[1]
  inhibition: Active

## Cc1ccc(-c2ccncc2-c2ccc(O)c(O)c2)c2ccccc12
[1]
  inhibition: Active
[2]
  Activity: Active

— ChEMBL document CHEMBL5143571, “Design, synthesis and anti-breast cancer evaluation of biaryl pyridine analogues as potent RSK inhibitors” (Bioorg Med Chem Lett, 2022)
